Data published in PubChem BioAssay AID1963836 (Molecular Pharmacology Branch, DTP, NCI, 2024).

System: 857933-349-R-J2-PDC complex spheroid viability
Assay: Anticancer human tumor 857933-349-R-J2-PDC patient-derived colon adenocarcinoma cell line growth inhibition [POLQ]
Conditions: for IC50: curve of first compound; for viability, T/C: stronger effect = lower value
In short: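 Growth inhibition in 3D: complex spheroids (tumor PDC, HUVEC, MSC) treated with POLQ inhibitor combinations; where Cmax unknown, highest tested concentration 10 microM, except SN-38 at 1 microM.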

[1] = second compound 0.0316 µM, first compound 0.0316 µM
[2] = second compound 0.0316 µM, first compound 0.1 µM
[3] = second compound 0.0316 µM, first compound 0.316 µM
[4] = second compound 0.0316 µM, first compound 1 µM
[5] = second compound 0.0316 µM, first compound 3.16 µM
[6] = second compound 0.0316 µM, first compound 10 µM
[7] = second compound 0.1 µM, first compound 0.0316 µM
[8] = second compound 0.1 µM, first compound 0.1 µM
[9] = second compound 0.1 µM, first compound 0.316 µM
[10] = second compound 0.1 µM, first compound 1 µM
[11] = second compound 0.1 µM, first compound 3.16 µM
[12] = second compound 0.1 µM, first compound 10 µM
[13] = second compound 0.316 µM, first compound 0.0316 µM
[14] = second compound 0.316 µM, first compound 0.1 µM
[15] = second compound 0.316 µM, first compound 0.316 µM
[16] = second compound 0.316 µM, first compound 1 µM
[17] = second compound 0.316 µM, first compound 3.16 µM
[18] = second compound 0.316 µM, first compound 10 µM
[19] = second compound 1 µM, first compound 0.0316 µM
[20] = second compound 1 µM, first compound 0.1 µM
[21] = second compound 1 µM, first compound 0.316 µM
[22] = second compound 1 µM, first compound 1 µM
[23] = second compound 1 µM, first compound 3.16 µM
[24] = second compound 1 µM, first compound 10 µM
[25] = second compound 3.16 µM, first compound 0.0316 µM
[26] = second compound 3.16 µM, first compound 0.1 µM
[27] = second compound 3.16 µM, first compound 0.316 µM
[28] = second compound 3.16 µM, first compound 1 µM
[29] = second compound 3.16 µM, first compound 3.16 µM
[30] = second compound 3.16 µM, first compound 10 µM
[31] = second compound 10 µM, first compound 0.0316 µM
[32] = second compound 10 µM, first compound 0.1 µM
[33] = second compound 10 µM, first compound 0.316 µM
[34] = second compound 10 µM, first compound 1 µM
[35] = second compound 10 µM, first compound 3.16 µM
[36] = second compound 10 µM, first compound 10 µM
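Note: spheroids exposed to compounds for seven days before readout.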

SMILES: CC1COCCN1c1cc(-c2ccnn2C)c2ccnc(-c3ccn[nH]3)c2n1 (stereo not drawn) + Cc1cccc(N(C)C(=O)C2C(O)CCN2c2nc(C)cc(C(F)(F)F)c2C#N)c1
- IC50 (second compound 0.0316 µM): 0.186 µM
- IC50 (second compound 0.1 µM): 0.212 µM
- IC50 (second compound 0.316 µM): 0.235 µM
- IC50 (second compound 1 µM): 0.181 µM
- IC50 (second compound 3.16 µM): 0.153 µM
- IC50 (second compound 10 µM): 0.0925 µM
- viability, T/C [1]: 58.7%
- viability, T/C [2]: 55.3%
- viability, T/C [3]: 44%
- viability, T/C [4]: 29.7%
- viability, T/C [5]: 32.7%
- viability, T/C [6]: 36.6%
- viability, T/C [7]: 71.6%
- viability, T/C [8]: 73.2%
- viability, T/C [9]: 38.1%
- viability, T/C [10]: 34.2%
- viability, T/C [11]: 42.9%
- viability, T/C [12]: 37.2%
- viability, T/C [13]: 73.2%
- viability, T/C [14]: 68.3%
- viability, T/C [15]: 43.9%
- viability, T/C [16]: 31.3%
- viability, T/C [17]: 49.6%
- viability, T/C [18]: 45.4%
- viability, T/C [19]: 58.9%
- viability, T/C [20]: 63.4%
- viability, T/C [21]: 37.6%
- viability, T/C [22]: 34.4%
- viability, T/C [23]: 42.6%
- viability, T/C [24]: 43.4%
- viability, T/C [25]: 65.9%
- viability, T/C [26]: 55.4%
- viability, T/C [27]: 44.6%
- viability, T/C [28]: 38.3%
- viability, T/C [29]: 43%
- viability, T/C [30]: 45.6%
- viability, T/C [31]: 49.8%
- viability, T/C [32]: 59.9%
- viability, T/C [33]: 40%
- viability, T/C [34]: 37.6%
- viability, T/C [35]: 47.5%
- viability, T/C [36]: 34.9%

SMILES: CC(=O)O[C@H]1C(=O)[C@@]2(C)[C@H]([C@H](OC(=O)c3ccccc3)[C@]3(O)C[C@H](OC(=O)[C@H](O)[C@@H](NC(=O)c4ccccc4)c4ccccc4)C(C)=C1C3(C)C)[C@]1(OC(C)=O)CO[C@@H]1C[C@@H]2O + Nc1ccc(C#CCN(C(=O)Cc2ncc(C(F)(F)F)cc2C(F)(F)F)c2ccc(F)cc2)nn1
- IC50 (second compound 0.0316 µM): < 0.00949 µM
- IC50 (second compound 0.1 µM): < 0.00949 µM
- IC50 (second compound 0.316 µM): 0.0128 µM
- IC50 (second compound 1 µM): 0.0112 µM
- IC50 (second compound 3.16 µM): 0.00973 µM
- IC50 (second compound 10 µM): 0.0113 µM
- viability, T/C (second compound 0.0316 µM, first compound 0.00949 µM): 45%
- viability, T/C (second compound 0.0316 µM, first compound 0.03 µM): 20.3%
- viability, T/C (second compound 0.0316 µM, first compound 0.0949 µM): 13.2%
- viability, T/C (second compound 0.0316 µM, first compound 0.3 µM): 10.6%
- viability, T/C (second compound 0.0316 µM, first compound 0.949 µM): 12.3%
- viability, T/C (second compound 0.0316 µM, first compound 3 µM): 15.7%
- viability, T/C (second compound 0.1 µM, first compound 0.00949 µM): 45.8%
- viability, T/C (second compound 0.1 µM, first compound 0.03 µM): 22.9%
- viability, T/C (second compound 0.1 µM, first compound 0.0949 µM): 10.2%
- viability, T/C (second compound 0.1 µM, first compound 0.3 µM): 15.6%
- viability, T/C (second compound 0.1 µM, first compound 0.949 µM): 11.8%
- viability, T/C (second compound 0.1 µM, first compound 3 µM): 15.2%
- viability, T/C (second compound 0.316 µM, first compound 0.00949 µM): 58.1%
- viability, T/C (second compound 0.316 µM, first compound 0.03 µM): 27.4%
- viability, T/C (second compound 0.316 µM, first compound 0.0949 µM): 12.8%
- viability, T/C (second compound 0.316 µM, first compound 0.3 µM): 14.9%
- viability, T/C (second compound 0.316 µM, first compound 0.949 µM): 15.1%
- viability, T/C (second compound 0.316 µM, first compound 3 µM): 17.1%
- viability, T/C (second compound 1 µM, first compound 0.00949 µM): 54.5%
- viability, T/C (second compound 1 µM, first compound 0.03 µM): 24.8%
- viability, T/C (second compound 1 µM, first compound 0.0949 µM): 14.6%
- viability, T/C (second compound 1 µM, first compound 0.3 µM): 14%
- viability, T/C (second compound 1 µM, first compound 0.949 µM): 17.4%
- viability, T/C (second compound 1 µM, first compound 3 µM): 14.8%
- viability, T/C (second compound 3.16 µM, first compound 0.00949 µM): 50.6%
- viability, T/C (second compound 3.16 µM, first compound 0.03 µM): 20.1%
- viability, T/C (second compound 3.16 µM, first compound 0.0949 µM): 16.1%
- viability, T/C (second compound 3.16 µM, first compound 0.3 µM): 11.7%
- viability, T/C (second compound 3.16 µM, first compound 0.949 µM): 17.3%
- viability, T/C (second compound 3.16 µM, first compound 3 µM): 18.6%
- viability, T/C (second compound 10 µM, first compound 0.00949 µM): 54.2%
- viability, T/C (second compound 10 µM, first compound 0.03 µM): 26.5%
- viability, T/C (second compound 10 µM, first compound 0.0949 µM): 16.8%
- viability, T/C (second compound 10 µM, first compound 0.3 µM): 14.9%
- viability, T/C (second compound 10 µM, first compound 0.949 µM): 14.5%
- viability, T/C (second compound 10 µM, first compound 3 µM): 20.3%

SMILES: CC(C)n1c(=O)n(C)c2cnc3cc(F)c(-c4ccc(OCCCN5CCCCC5)nc4)cc3c21 + Nc1ccc(C#CCN(C(=O)Cc2ncc(C(F)(F)F)cc2C(F)(F)F)c2ccc(F)cc2)nn1
- IC50 (second compound 0.0316 µM): > 10 µM
- IC50 (second compound 0.1 µM): > 10 µM
- IC50 (second compound 0.316 µM): > 10 µM
- IC50 (second compound 1 µM): > 10 µM
- IC50 (second compound 3.16 µM): > 10 µM
- IC50 (second compound 10 µM): > 10 µM
- viability, T/C [1]: 88.3%
- viability, T/C [2]: 89%
- viability, T/C [3]: 103%
- viability, T/C [4]: 106%
- viability, T/C [5]: 93.7%
- viability, T/C [6]: 98.8%
- viability, T/C [7]: 99.5%
- viability, T/C [8]: 109%
- viability, T/C [9]: 111%
- viability, T/C [10]: 116%
- viability, T/C [11]: 118%
- viability, T/C [12]: 100%
- viability, T/C [13]: 108%
- viability, T/C [14]: 106%
- viability, T/C [15]: 103%
- viability, T/C [16]: 98.7%
- viability, T/C [17]: 105%
- viability, T/C [18]: 98%
- viability, T/C [19]: 107%
- viability, T/C [20]: 95.9%
- viability, T/C [21]: 107%
- viability, T/C [22]: 114%
- viability, T/C [23]: 95.2%
- viability, T/C [24]: 84.7%
- viability, T/C [25]: 91.7%
- viability, T/C [26]: 99.9%
- viability, T/C [27]: 103%
- viability, T/C [28]: 115%
- viability, T/C [29]: 111%
- viability, T/C [30]: 91.5%
- viability, T/C [31]: 86.4%
- viability, T/C [32]: 102%
- viability, T/C [33]: 114%
- viability, T/C [34]: 89.3%
- viability, T/C [35]: 98.1%
- viability, T/C [36]: 92.6%

SMILES: C#Cc1c(F)ccc2cc(O)cc(-c3ncc4c(N5CC6CCC(C5)N6)nc(OCC56CCCN5CC(F)C6)nc4c3F)c12 (stereo not drawn) + Cc1cccc(N(C)C(=O)C2C(O)CCN2c2nc(C)cc(C(F)(F)F)c2C#N)c1
- IC50 (second compound 0.0316 µM): > 10 µM
- IC50 (second compound 0.1 µM): > 10 µM
- IC50 (second compound 0.316 µM): > 10 µM
- IC50 (second compound 1 µM): > 10 µM
- IC50 (second compound 3.16 µM): > 10 µM
- IC50 (second compound 10 µM): > 10 µM
- viability, T/C [1]: 91.7%
- viability, T/C [2]: 105%
- viability, T/C [3]: 101%
- viability, T/C [4]: 89.2%
- viability, T/C [5]: 89.4%
- viability, T/C [6]: 82.8%
- viability, T/C [7]: 107%
- viability, T/C [8]: 97.8%
- viability, T/C [9]: 96.3%
- viability, T/C [10]: 76.8%
- viability, T/C [11]: 89.2%
- viability, T/C [12]: 74.2%
- viability, T/C [13]: 101%
- viability, T/C [14]: 110%
- viability, T/C [15]: 103%
- viability, T/C [16]: 80.3%
- viability, T/C [17]: 96.1%
- viability, T/C [18]: 91.4%
- viability, T/C [19]: 87%
- viability, T/C [20]: 87.1%
- viability, T/C [21]: 85.6%
- viability, T/C [22]: 87.5%
- viability, T/C [23]: 91%
- viability, T/C [24]: 87.6%
- viability, T/C [25]: 97.7%
- viability, T/C [26]: 90.2%
- viability, T/C [27]: 85.9%
- viability, T/C [28]: 90.8%
- viability, T/C [29]: 101%
- viability, T/C [30]: 84.2%
- viability, T/C [31]: 80.8%
- viability, T/C [32]: 86.9%
- viability, T/C [33]: 91%
- viability, T/C [34]: 75.1%
- viability, T/C [35]: 90.9%
- viability, T/C [36]: 81.3%
